Data as given in article PMC12116762, “Topobexin targets the Topoisomerase II ATPase domain for beta isoform-selective inhibition and anthracycline cardioprotection” (Nature Communications, 2025).

Columns and labels:
[1] = tested on: neonatal rat ventricular cardiomyocytes (NVCM); assay: Inherent toxicity (LDH release) in NVCM; assay type: cell-based; parameters: key to LDH release (inherent toxicity), mean of independent replicates: % of total LDH activity; settings: NVCM; for LTC = lowest toxic concentration: compound alone, n=4
Procedure: (§1) The protective effects of the BNS-22 and newly prepared compounds were evaluated using primary cultures of neonatal rat cardiomyocytes isolated in house as previously described. Hearts isolated from 1- to 3-day-old Wistar rats were minced in buffer (1.2 mM MgSO4 · 7H2O, 116 mM NaCl, 5.3 mM KCl, 1.13 mM NaH2PO4 · H2O, 20 mM 4-(2-hydroxyethyl)-1-piperazine ethanesulfonic acid (HEPES), glucose 1 mg/mL) on ice, then serially digested (20 min, six repetitions) at 37 °C with collagenase type II (60 U/mL, Gibco). After 2 h pre-plating in a 150 mm Petri dish per approximately 20 hearts to minimize non-myocyte contamination, cells were plated in 24-well gelatin-coated plates at a density of 400,000 cells per well. Cells were cultured at 37 °C and 5% CO2 in Dulbecco’s modified Eagle medium (DMEM)/ F12 culture medium supplemented with 10% horse serum, 5% fetal bovine serum (FBS), 20 mM sodium pyruvate, 50 U/mL penicillin, and 50 μg/mL streptomycin. Freshly isolated cells were left for 40 h to attach and form a culture of spontaneously beating cardiomyocytes, then the medium was changed to DMEM/F12 medium supplemented with 5% fetal bovine serum, 20 mM sodium pyruvate, 50 U/mL penicillin, and 50 μg/mL streptomycin. For the experiments, the medium was changed to serum- and pyruvate-free DMEM/F12 with 50 U/mL penicillin and 50 μg/mL streptomycin. Cardiomyocytes were pretreated with BNS-22 or new compounds for 3 h and then coincubated with DAU (1.2 µM) for another 3 h. After the DAU treatment period, the culture medium was exchanged for the drug-free DMEM/F12 with 50 U/mL penicillin and 50 μg/mL streptomycin for the 48 h follow-up. Experiments to determine the inherent toxicity of each compound studied follow the same schedule, only no DAU was added. Subsequently, the culture medium sample was taken from each well for evaluation of lactate dehydrogenase (LDH) activity. The total LDH activity of each sample for normalization was measured after 1 h of incubation at 37 °C in lysis buffer (0.1 M potassium phosphate, 1% Triton X-100, 1 mM dithiothreitol (DTT), 2 mM EDTA, pH 7.8, 15 min in RT). All samples were immediately analyzed in Tris HCl buffer (pH 8.9) containing 35 mM lactic acid and 5 mM NAD^+. The rate of NAD^+ reduction was monitored spectrophotometrically at 340 nm for 2 min. The slope of the linear region was calculated, and the results were expressed as a percentage of the total LDH. Each presented data point was obtained from distinct sample.

[2] = tested on: neonatal rat ventricular cardiomyocytes (NVCM); assay: Protection against DAU-induced cytotoxicity (LDH release) in NVCM; assay type: cell-based; parameters: key to Suppl.Fig.3 DAU-induced cytotoxicity (LDH release) in NVCM, mean of independent replicates / LDH release (DAU-induced cytotoxicity), mean of independent replicates: % of total LDH activity; settings: for minimal effective concentration: Rattus norvegicus, Cardiomyocyte, protection against DAU 1.2 µM, n=4, read-out: LEC = lowest effective concentration; for minimal effective concentration / LDH release (protection against DAU), mean of independent replicates: NVCM; for LDH release (protection against DAU), mean of independent replicates: Suppl.Fig.6b
Procedure: as §1

[3] = molecular target: T1, recombinant human TOP2A (Homo sapiens, UniProt P11388); assay: In vitro ATPase activity of TOP2A (coupled assay); assay type: biochemical; settings: n=3
T1 construct: Using recombinant full-length human TOP2A and TOP2B enzymes; YFP (N, cleaved yes); made in house; host or cells: HEK293F
Procedure: (§2) Topoisomerase proteins were diluted to 500 nM in storage buffer containing 20 mM HEPES pH 7.5, 500 mM NaCl, 0.5 mM TCEP, 25% glycerol, and 0.2 mg/mL BSA prior to use. A coupled assay was used to measure TOP2-catalyzed ATP hydrolysis in vitro[37] in Costar 96-well plates (Corning Incorporated). […] Reaction plates were pre-warmed to 30 °C for 5 min and ATP was added last to initiate the reaction. The reaction plate was placed in a CLARIOstarPlus plate reader (BMG Labtech) to measure NADH fluorescence at 30 °C every 30 s over 120 cycles using a 340-60 excitation filter and a 480-100 emission filter. Background fluorescence signals calculated from wells containing no ATP were subtracted from each measurement. The slope of NADH fluorescence decay in each well was calculated using the MARS software (BMG Labtech) and reaction wells that lacked topoisomerase inhibitor to account for photobleaching of NADH fluorescence served as background subtraction. Each presented data point was obtained from distinct sample. Values were normalized to untreated controls and plotted as a function of inhibitor concentration to determine IC50 values using Prism 9 (GraphPad).

[4] = molecular target: T2, recombinant human TOP2B (Homo sapiens, UniProt Q02880); assay: In vitro ATPase activity of TOP2B (coupled assay); assay type: biochemical; settings: for SRbeta (SRTOP2B), TOP2 ATPase activity: TOP2A IC50 divided by TOP2B IC50; for IC50: n=3
T2 construct: Using recombinant full-length human TOP2A and TOP2B enzymes; YFP (N, cleaved yes); made in house; host or cells: HEK293F
Procedure: as §2

[5] = compound alone 0.1 µM, Suppl.Fig.4
[6] = compound alone 1 µM, Suppl.Fig.4
[7] = compound alone 10 µM, Suppl.Fig.4
[8] = compound alone 30 µM, Suppl.Fig.4
[9] = compound alone 0.01 µM, Suppl.Fig.6c
[10] = compound alone 0.1 µM, Suppl.Fig.6c
[11] = compound alone 1 µM, Suppl.Fig.6c
[12] = compound alone 10 µM, Suppl.Fig.6c
[13] = compound alone 30 µM, Suppl.Fig.6c
[14] = compound alone 100 µM, Suppl.Fig.6c

T2 sequence (Q02880 1-1621 isoform Q02880-2): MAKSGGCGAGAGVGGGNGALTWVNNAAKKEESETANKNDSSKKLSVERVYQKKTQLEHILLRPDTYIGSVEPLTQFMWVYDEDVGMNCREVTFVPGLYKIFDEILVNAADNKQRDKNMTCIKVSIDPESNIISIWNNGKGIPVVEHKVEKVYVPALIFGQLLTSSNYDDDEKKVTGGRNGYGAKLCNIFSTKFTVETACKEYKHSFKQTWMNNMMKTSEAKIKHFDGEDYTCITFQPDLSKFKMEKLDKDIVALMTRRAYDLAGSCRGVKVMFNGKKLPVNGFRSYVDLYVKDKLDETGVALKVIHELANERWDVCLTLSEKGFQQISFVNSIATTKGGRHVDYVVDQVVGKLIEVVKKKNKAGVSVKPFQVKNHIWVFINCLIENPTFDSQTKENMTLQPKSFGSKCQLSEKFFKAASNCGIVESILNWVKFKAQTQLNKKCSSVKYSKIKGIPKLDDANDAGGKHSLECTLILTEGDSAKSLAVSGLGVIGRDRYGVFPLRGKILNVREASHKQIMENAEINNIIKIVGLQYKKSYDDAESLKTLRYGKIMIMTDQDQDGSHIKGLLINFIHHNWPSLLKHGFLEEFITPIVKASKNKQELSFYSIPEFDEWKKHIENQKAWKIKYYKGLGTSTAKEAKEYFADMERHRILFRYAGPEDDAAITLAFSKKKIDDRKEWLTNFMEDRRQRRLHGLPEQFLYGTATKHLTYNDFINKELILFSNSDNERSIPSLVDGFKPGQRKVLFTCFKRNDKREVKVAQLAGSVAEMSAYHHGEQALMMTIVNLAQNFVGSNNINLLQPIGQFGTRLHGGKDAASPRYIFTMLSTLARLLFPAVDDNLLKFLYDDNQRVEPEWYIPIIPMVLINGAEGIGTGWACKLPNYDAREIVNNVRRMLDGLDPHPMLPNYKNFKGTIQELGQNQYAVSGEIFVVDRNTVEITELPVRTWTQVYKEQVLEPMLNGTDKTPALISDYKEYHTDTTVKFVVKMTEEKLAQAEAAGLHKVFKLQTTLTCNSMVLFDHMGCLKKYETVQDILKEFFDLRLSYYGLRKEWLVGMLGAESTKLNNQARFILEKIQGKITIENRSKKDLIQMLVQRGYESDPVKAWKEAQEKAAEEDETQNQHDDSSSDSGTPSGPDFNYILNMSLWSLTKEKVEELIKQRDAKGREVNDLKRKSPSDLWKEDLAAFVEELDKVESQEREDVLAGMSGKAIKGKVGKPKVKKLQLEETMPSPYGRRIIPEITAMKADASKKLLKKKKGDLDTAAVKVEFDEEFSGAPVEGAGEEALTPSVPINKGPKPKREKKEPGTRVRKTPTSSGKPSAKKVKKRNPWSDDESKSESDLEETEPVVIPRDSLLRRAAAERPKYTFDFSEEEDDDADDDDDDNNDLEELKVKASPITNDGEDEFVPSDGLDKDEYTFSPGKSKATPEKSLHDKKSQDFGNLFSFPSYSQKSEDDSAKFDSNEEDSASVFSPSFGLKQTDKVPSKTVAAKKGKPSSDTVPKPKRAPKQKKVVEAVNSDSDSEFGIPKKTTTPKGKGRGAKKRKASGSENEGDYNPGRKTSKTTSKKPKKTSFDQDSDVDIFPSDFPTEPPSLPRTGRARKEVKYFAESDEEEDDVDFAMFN
T1 sequence (P11388 whole entry): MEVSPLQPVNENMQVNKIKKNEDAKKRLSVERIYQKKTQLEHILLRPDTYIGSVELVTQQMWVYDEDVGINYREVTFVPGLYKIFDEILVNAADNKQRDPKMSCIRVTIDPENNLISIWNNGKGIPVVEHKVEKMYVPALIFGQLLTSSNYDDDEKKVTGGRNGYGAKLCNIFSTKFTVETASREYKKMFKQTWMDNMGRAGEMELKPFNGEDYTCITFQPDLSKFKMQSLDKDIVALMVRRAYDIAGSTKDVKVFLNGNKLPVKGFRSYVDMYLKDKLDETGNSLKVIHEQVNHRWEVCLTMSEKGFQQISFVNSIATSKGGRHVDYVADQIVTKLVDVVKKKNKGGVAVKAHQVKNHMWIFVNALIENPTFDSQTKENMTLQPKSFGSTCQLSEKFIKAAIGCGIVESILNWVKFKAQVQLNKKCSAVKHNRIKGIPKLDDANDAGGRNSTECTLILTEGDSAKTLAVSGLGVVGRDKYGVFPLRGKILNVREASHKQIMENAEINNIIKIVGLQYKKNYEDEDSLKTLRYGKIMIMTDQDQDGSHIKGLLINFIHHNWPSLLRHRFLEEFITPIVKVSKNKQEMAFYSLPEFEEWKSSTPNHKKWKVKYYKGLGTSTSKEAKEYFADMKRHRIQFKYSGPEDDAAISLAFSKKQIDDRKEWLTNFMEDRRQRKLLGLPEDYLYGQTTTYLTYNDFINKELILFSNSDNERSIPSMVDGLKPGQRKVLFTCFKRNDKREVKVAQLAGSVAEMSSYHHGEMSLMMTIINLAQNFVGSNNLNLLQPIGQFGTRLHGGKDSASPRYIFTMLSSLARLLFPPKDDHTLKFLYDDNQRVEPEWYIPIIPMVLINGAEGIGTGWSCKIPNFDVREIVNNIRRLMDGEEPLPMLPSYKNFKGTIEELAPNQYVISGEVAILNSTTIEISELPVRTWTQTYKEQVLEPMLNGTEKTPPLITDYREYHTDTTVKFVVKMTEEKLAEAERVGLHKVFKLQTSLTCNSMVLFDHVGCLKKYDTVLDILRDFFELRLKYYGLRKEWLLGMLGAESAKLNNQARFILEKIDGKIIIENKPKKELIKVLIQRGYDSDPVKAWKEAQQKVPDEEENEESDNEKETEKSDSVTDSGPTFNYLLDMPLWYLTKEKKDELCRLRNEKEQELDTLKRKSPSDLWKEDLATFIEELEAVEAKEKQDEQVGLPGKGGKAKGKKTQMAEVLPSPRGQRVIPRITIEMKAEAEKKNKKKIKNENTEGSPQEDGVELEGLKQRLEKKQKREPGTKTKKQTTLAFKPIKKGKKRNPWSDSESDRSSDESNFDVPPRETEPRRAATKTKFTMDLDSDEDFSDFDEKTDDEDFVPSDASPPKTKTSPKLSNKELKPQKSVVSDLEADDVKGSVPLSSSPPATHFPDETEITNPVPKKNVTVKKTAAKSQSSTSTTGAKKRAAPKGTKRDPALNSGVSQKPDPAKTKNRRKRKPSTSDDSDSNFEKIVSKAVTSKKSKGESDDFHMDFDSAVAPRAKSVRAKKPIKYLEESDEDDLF

Structure (SMILES)	IC50 [3] [nM]	SRbeta (SRTOP2B), TOP2 ATPase activity [4]	IC50 [4] [nM]	LTC = lowest toxic concentration [1] [µM]	LDH release (inherent toxicity), mean of independent replicates [1, 5]	LDH release (inherent toxicity), mean of independent replicates [1, 6]	LDH release (inherent toxicity), mean of independent replicates [1, 7]	minimal effective concentration [2] [µM]	Suppl.Fig.3 DAU-induced cytotoxicity (LDH release) in NVCM, mean of independent replicates ([2]; compound 0.1 µM + DAU 1.2 µM)	Suppl.Fig.3 DAU-induced cytotoxicity (LDH release) in NVCM, mean of independent replicates ([2]; compound 1 µM + DAU 1.2 µM)	Suppl.Fig.3 DAU-induced cytotoxicity (LDH release) in NVCM, mean of independent replicates ([2]; compound 10 µM + DAU 1.2 µM)	LDH release (inherent toxicity), mean of independent replicates [1, 8]	Suppl.Fig.3 DAU-induced cytotoxicity (LDH release) in NVCM, mean of independent replicates ([2]; compound 30 µM + DAU 1.2 µM)	LDH release (inherent toxicity), mean of independent replicates [1, 9]	LDH release (inherent toxicity), mean of independent replicates [1, 10]	LDH release (inherent toxicity), mean of independent replicates [1, 11]	LDH release (inherent toxicity), mean of independent replicates [1, 12]	LDH release (inherent toxicity), mean of independent replicates [1, 13]	LDH release (inherent toxicity), mean of independent replicates [1, 14]	LDH release (protection against DAU), mean of independent replicates ([2]; compound 0.01 µM + DAU 1.2 µM)	further results
CCCc1cc(=O)oc2c(C(=O)N3CCCc4ccccc43)c(OC)ccc12 [3c]	1270	1.6	780	> 10	16.0204	16.3627	16.4282	1	33.8238	29.3632	23.4291	–	–	–	–	–	–	–	–	–	LDH release (inherent toxicity), mean of independent replicates ([1]; compound alone 3 µM, Suppl.Fig.4): 15.3033; Suppl.Fig.3 DAU-induced cytotoxicity (LDH release) in NVCM, mean of independent replicates ([2]; compound 3 µM + DAU 1.2 µM): 26.6827
CCCc1cc(=O)oc2c(C(=O)N3CCCc4ccccc43)c(OCCN(C)C)ccc12 [compound 7]	–	–	–	–	–	–	–	10	–	–	–	–	–	12.5189	12.4578	12.8607	14.2154	18.2491	27.6932	44.2016	LDH release (protection against DAU), mean of independent replicates ([2]; compound 0.1 µM + DAU 1.2 µM): 45.7696; LDH release (protection against DAU), mean of independent replicates ([2]; compound 1 µM + DAU 1.2 µM): 39.8955; LDH release (protection against DAU), mean of independent replicates ([2]; compound 10 µM + DAU 1.2 µM): 31.2866; LDH release (protection against DAU), mean of independent replicates ([2]; compound 30 µM + DAU 1.2 µM): 33.8072; LDH release (protection against DAU), mean of independent replicates ([2]; compound 100 µM + DAU 1.2 µM): 37.6314
CCCc1cc(=O)oc2c(C(=O)N3CCCc4ccccc43)c(OCCCN3CCCCC3)ccc12 [compound 8]	–	–	–	30	–	–	–	1	–	–	–	–	–	14.7015	13.9677	14.1413	16.8035	21.145	29.4802	40.886	LDH release (protection against DAU), mean of independent replicates ([2]; compound 0.1 µM + DAU 1.2 µM): 39.8568; LDH release (protection against DAU), mean of independent replicates ([2]; compound 1 µM + DAU 1.2 µM): 34.126; LDH release (protection against DAU), mean of independent replicates ([2]; compound 10 µM + DAU 1.2 µM): 30.5731; LDH release (protection against DAU), mean of independent replicates ([2]; compound 30 µM + DAU 1.2 µM): 32.7612; LDH release (protection against DAU), mean of independent replicates ([2]; compound 100 µM + DAU 1.2 µM): 39.9555

Second part, led by results:

IC50 [3] [nM]	SRbeta (SRTOP2B), TOP2 ATPase activity [4]	IC50 [4] [nM]	Structure (SMILES)	LTC = lowest toxic concentration [1] [µM]	LDH release (inherent toxicity), mean of independent replicates [1, 5]	LDH release (inherent toxicity), mean of independent replicates [1, 6]	LDH release (inherent toxicity), mean of independent replicates [1, 7]	minimal effective concentration [2] [µM]	Suppl.Fig.3 DAU-induced cytotoxicity (LDH release) in NVCM, mean of independent replicates ([2]; compound 0.1 µM + DAU 1.2 µM)	Suppl.Fig.3 DAU-induced cytotoxicity (LDH release) in NVCM, mean of independent replicates ([2]; compound 1 µM + DAU 1.2 µM)	Suppl.Fig.3 DAU-induced cytotoxicity (LDH release) in NVCM, mean of independent replicates ([2]; compound 10 µM + DAU 1.2 µM)	LDH release (inherent toxicity), mean of independent replicates [1, 8]	Suppl.Fig.3 DAU-induced cytotoxicity (LDH release) in NVCM, mean of independent replicates ([2]; compound 30 µM + DAU 1.2 µM)	LDH release (inherent toxicity), mean of independent replicates [1, 9]	LDH release (inherent toxicity), mean of independent replicates [1, 10]	LDH release (inherent toxicity), mean of independent replicates [1, 11]	LDH release (inherent toxicity), mean of independent replicates [1, 12]	LDH release (inherent toxicity), mean of independent replicates [1, 13]	LDH release (inherent toxicity), mean of independent replicates [1, 14]	LDH release (protection against DAU), mean of independent replicates ([2]; compound 0.01 µM + DAU 1.2 µM)	further results
1870	2.2	850	CCCOc1ccc2c(CCC)cc(=O)oc2c1C(=O)N1CCCc2ccccc21 [4c]	–	16.7326	16.4897	23.8379	0.1	37.3488	27.8991	34.5307	34.5318	56.7644	–	–	–	–	–	–	–	LDH release (inherent toxicity), mean of independent replicates ([1]; compound alone 0.01 µM, Suppl.Fig.4): 13.5244; LDH release (inherent toxicity), mean of independent replicates ([1]; compound alone 100 µM, Suppl.Fig.4): 48.1102; Suppl.Fig.3 DAU-induced cytotoxicity (LDH release) in NVCM, mean of independent replicates ([2]; compound 0.01 µM + DAU 1.2 µM): 45.7304; Suppl.Fig.3 DAU-induced cytotoxicity (LDH release) in NVCM, mean of independent replicates ([2]; compound 100 µM + DAU 1.2 µM): 78.8192
1420	1.0	1460	CCc1cc(=O)oc2c(C(=O)N3CCCc4ccccc43)c(OCCO)ccc12 [5b]	> 30	13.7703	14.0098	14.5134	10	53.5677	49.2444	40.137	14.3714	35.8495	–	–	–	–	–	–	–	–
